Laboratory results from patent publication US20250268903A1, “RXFP1 AGONISTS” (BRISTOL-MYERS SQUIBB COMPANY, priority 2021, published 2025).
pEC50: −log10 of the molar value.

These compounds were tested against T1, human RXFP1 (Homo sapiens, UniProt Q9HBX9) (assay: hRXFP1 HEK293 cAMP assay (HTRF)). Conditions: HEK293 cells stably expressing human RXFP1, 30 min at room temperature.
T1 construct: expressed in transfected cells
T1 sequence (Q9HBX9 1-757): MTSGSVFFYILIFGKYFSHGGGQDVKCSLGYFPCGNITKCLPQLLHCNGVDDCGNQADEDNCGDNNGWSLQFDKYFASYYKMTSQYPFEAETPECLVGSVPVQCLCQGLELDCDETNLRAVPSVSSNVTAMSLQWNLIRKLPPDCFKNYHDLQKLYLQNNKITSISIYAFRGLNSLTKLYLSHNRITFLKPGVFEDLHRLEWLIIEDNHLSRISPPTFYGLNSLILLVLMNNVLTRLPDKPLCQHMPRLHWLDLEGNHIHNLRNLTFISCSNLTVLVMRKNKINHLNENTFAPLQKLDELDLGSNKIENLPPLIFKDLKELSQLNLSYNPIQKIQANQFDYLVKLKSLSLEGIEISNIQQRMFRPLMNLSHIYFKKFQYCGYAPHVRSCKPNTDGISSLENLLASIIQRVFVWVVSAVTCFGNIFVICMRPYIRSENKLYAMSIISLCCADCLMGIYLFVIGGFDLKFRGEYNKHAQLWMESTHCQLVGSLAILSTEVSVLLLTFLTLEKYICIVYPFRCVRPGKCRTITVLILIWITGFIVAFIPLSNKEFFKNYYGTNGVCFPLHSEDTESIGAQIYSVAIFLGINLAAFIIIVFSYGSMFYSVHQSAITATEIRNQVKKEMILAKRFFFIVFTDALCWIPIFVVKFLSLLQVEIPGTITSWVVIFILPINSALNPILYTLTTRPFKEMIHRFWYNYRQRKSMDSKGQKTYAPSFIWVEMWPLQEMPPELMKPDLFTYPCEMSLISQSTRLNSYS
Format: cell-based
Procedure, shortened: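 Potency and activity come from a four-parameter logistic fit of cAMP against compound concentration, tested from 0.010 nM up to 50 μM. The assay uses HEK293 cells stably expressing human RXFP1, incubated 30 min at ambient temperature with phosphodiesterase inhibitor IBMX present.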

Going from `COc1ccc(C[C@H]2C[C@H](O)C2)cc1C(=O)N[C@H]1[C@@H](C(=O)Nc2ccc(F)c(C(F)(F)F)c2)[C@H]2CC[C@@H]1/C2=C\C(F)(F)F` [Example 279, (1R,2S,3R,4R,7Z)-N-[4-fluoro-3-(trifluoromethyl)phenyl]-3-(2-methoxy-5-{[(1r,3s)-3-hydroxycyclobutyl]methyl}benzamido)-7-(2,2,2-trifluoroethylidene) bicyclo[2.2.1]heptane-2-carboxamide] to `COc1ccc(COCC2COC2)cc1C(=O)N[C@H]1[C@@H](C(=O)Nc2ccc(F)c(C(F)(F)F)c2)[C@H]2CC[C@@H]1/C2=C\C(F)(F)F` [Example 284, (1R,2S,3R,4R,7Z)-N-[4-fluoro-3-(trifluoromethyl)phenyl]-3-(2-methoxy-5-{[(oxetan-3-yl)methoxy]methyl}benzamido)-7-(2,2,2-trifluoroethylidene) bicyclo[2.2.1] heptane-2-carboxamide], the pEC50 falls from 7.74 to 6.79 (0.95 log units). The first is the more potent here.

Going from `COc1ccc(/C(=C/CO)C(F)(F)F)cc1C(=O)N[C@H]1[C@@H](C(=O)Nc2ccc(F)c(C(F)(F)F)c2)[C@H]2CC[C@@H]1/C2=C\C1CC1` [Example 282, (1R,2S,3R,4R,Z)-7-(cyclopropylmethylene)-N-(4-fluoro-3-(trifluoromethyl)phenyl)-3-(2-methoxy-5-((Z)-1,1,1-trifluoro-4-hydroxybut-2-en-2-yl)benzamido) bicyclo[2.2.1]heptane-2-carboxamide] to `COc1ccc(COC[C@@H]2C[C@@H]2CO)cc1C(=O)N[C@H]1[C@@H](C(=O)Nc2ccc(F)c(C(F)(F)F)c2)[C@H]2CC[C@@H]1/C2=C\C1CC1` [Example 293, (1R,2S,3R,4R,7Z)-7-(cyclopropyl-methylidene)-N-[4-fluoro-3-(trifluoromethyl)phonyl]-3-[5-({[(1R,2S)-2-(hydroxymethyl)cyclopropyl]methoxy}methyl)-2-methoxybenzamido] bicyclo[2.2.1]heptane-2-carboxamide], the pEC50 rises from 6.55 to 7.17 (0.62 log units).

First: COc1ccc(COCC2CC(F)(F)C2)cc1C(=O)N[C@H]1[C@@H](C(=O)Nc2ccc(F)c(C(F)(F)F)c2)[C@H]2CC[C@@H]1/C2=C\C1CC1 [Example 283, (1R,2S,3R,4R,7Z)-7-(cyclopropyl-methylidene)-3-(5-{[(3,3-difluorocyclobutyl)methoxy]methyl}-2-methoxybenzamido)-N-[4-fluoro-3-(trifluoromethyl)phenyl] bicyclo[2.2.1] heptane-2-carboxamide]
Second: COc1ccc(COCC2CC(O)C2)cc1C(=O)N[C@H]1[C@@H](C(=O)Nc2ccc(F)c(C(F)(F)F)c2)[C@H]2CC[C@@H]1/C2=C\C1CC1 (stereo partly drawn) [Example 291, (1R,2S,3R,4R,7Z)-7-(cyclopropyl-methylidene)-N-[4-fluoro-3-(trifluoromethyl)phenyl]-3-(5-{[(3-hydroxycyclobutyl)methoxy]methyl}-2-methoxybenzamido) bicyclo[2.2.1] heptane-2-carboxamide]
The pEC50 of the first is 1.69 log units lower: 6.96 for the first, 8.65 for the second.

Going from `COc1ccc(COC2CC=CC2)cc1C(=O)N[C@H]1[C@@H](C(=O)Nc2ccc(F)c(C(F)(F)F)c2)[C@H]2CC[C@@H]1/C2=C\C1CC1` [Example 285, (1R,2S,3R,4R,7Z)-3-{5-[(cyclopent-3-en-1-yloxy)methyl]-2-methoxybenzamido}-(cyclopropylmethyl-idene)-N-[4-fluoro-3-(trifluoromethyl)phenyl]bicyclo [2.2.1]heptane-2-carboxamide] to `COc1ccc(COC2CCOCC2)cc1C(=O)N[C@H]1[C@@H](C(=O)Nc2ccc(F)c(C(F)(F)F)c2)[C@H]2CC[C@@H]1/C2=C\C1CC1` [Example 288, (1R,2S,3R,4R,7Z)-7-(cyclopropyl-methylidene)-N-[4-fluoro-3-(trifluoromethyl)phenyl]-3-{2-methoxy-5-[(oxan-4-yloxy)methyl]benzamido} bicyclo[2.2.1] heptane-2-carboxamide], the pEC50 rises from 6.65 to 7.23 (0.58 log units). The second is the more potent here.

Compared with `COc1ccc(COCC2CC3(C2)OCCO3)cc1C(=O)N[C@H]1[C@@H](C(=O)Nc2ccc(F)c(C(F)(F)F)c2)[C@H]2CC[C@@H]1/C2=C\C1CC1` [Example 286], `COc1ccc(COC[C@@H]2C[C@@H]2C(=O)O)cc1C(=O)N[C@H]1[C@@H](C(=O)Nc2ccc(F)c(C(F)(F)F)c2)[C@H]2CC[C@@H]1/C2=C\C1CC1` [Example 292, (1S,2R)-2-{[(3-{[(1R.2R,3S,4R,7Z)-7-(cyclopropyl-methylidene)-3-{[4-fluoro-3-(trifluoromethyl)phenyl]carbamoyl}bicyclo[2.2.1]heptan-2-yl]carbamoyl}-4-methoxyphenyl)methoxy]methyl} cyclopropane-1-carboxylic acid] is 0.63 log units higher in pEC50: 6.92 for the first, 7.55 for the second. The second is the more potent here.

Compared with `COc1ccc(COC[C@@H]2C[C@@H]2C(=O)OCc2ccccc2)cc1C(=O)N[C@H]1[C@@H](C(=O)Nc2ccc(F)c(C(F)(F)F)c2)[C@H]2CC[C@@H]1/C2=C\C1CC1` [Example 287, benzyl (1S, 2R)-2-{[(3-{[(1R,3S,4R,7Z)-7-(cyclopropylmethylidene)-3-{[4-fluoro-3-(trifluoromethyl)phenyl]carbamoyl}bicyclo[2.2.1]heptan-2-yl]carbamoyl}-4-methoxyphenyl)methoxy]methyl} cyclopropane-1-carboxylate], `COc1ccc(COC2CCC(O)CC2)cc1C(=O)N[C@H]1[C@@H](C(=O)Nc2ccc(F)c(C(F)(F)F)c2)[C@H]2CC[C@@H]1/C2=C\C1CC1` (stereo partly drawn) [Example 289, (1R,2S,3R,4R,7Z)-7-(cyclopropyl-methylidene)-N-[4-fluoro-3-(trifluoromethyl)phenyl]-3-(5-{[(4-hydroxycyclohexyl)oxy]methyl}-2-methoxybenzamido) bicyclo[2.2.1]heptane-2-carboxamide] is 1.95 log units higher in pEC50: 5.89 for the first, 7.84 for the second.

`COc1ccc(COC2CCC(O)CC2)cc1C(=O)N[C@H]1[C@@H](C(=O)Nc2ccc(F)c(C(F)(F)F)c2)[C@H]2CC[C@@H]1/C2=C\C1CC1` (stereo partly drawn) [Example 290, (1R,2S,3R,4R,7Z)-7-(cyclopropyl-methylidene)-N-[4-fluoro-3-(trifluoromethyl)phenyl]-3-(5-{[(4-hydroxycyclohexyl)oxy]methyl}-2-methoxybenzamido) bicyclo[2.2.1]heptane-2-carboxamide] and `COc1ccc(CN2C(=O)CN(CCO)C2=O)cc1C(=O)N[C@H]1[C@@H](C(=O)Nc2ccc(F)c(C(F)(F)F)c2)[C@H]2CC[C@@H]1/C2=C\C1CC1` [Example 294, (1R,2S,3R,4R,7Z)-7-(cyclopropyl-methylidene)-N-[4-fluoro-3-(trifluoromethyl)phenyl]-3-(5-{[3-(2-hydroxyethyl)-2,5-dioxoimidazolidin-1-yl]methyl}-2-methoxybenzamido) bicyclo[2.2.1]heptane-2-carboxamide] are within 0.2 log units of each other in pEC50: 7.12 for the first, 6.93 for the second.

Compound `COc1ccc(CN2C(=O)NC3(CCOC3)C2=O)cc1C(=O)N[C@H]1[C@@H](C(=O)Nc2ccc(F)c(C(F)(F)F)c2)[C@H]2CC[C@@H]1/C2=C\C1CC1` (stereo partly drawn) [Example 295, (1R,2S,3R,4R,7Z)-7-(cyclopropyl-methylidene)-3-[5-({2,4-dioxo-7-oxa-1,3-diazaspiro[4.4]nonan-3-yl}methyl)-2-methoxybenzamido]-N-[4-fluoro-3-(trifluoromethyl)phenyl]bicyclo [2.2.1]heptane-2-carboxamide] has a pEC50 of 7.15.
